In data set [1] the test system is acute respiratory distress syndrome (ARDS). In words: ARDS model, multiple-dose intravenous LPS (LD30). Format: in vivo, rat. The method, then:
(§1) Since an intravenous administration of lipopolysaccharide (LPS) to animals is one of the most acceptable models for studying the pathogenesis, pathomorphological changes and consequences of acute respiratory distress syndrome, this model was used in this example. Tested medicament glutaryl histamine was administered for 9 days after the first administration of LPS, i.e. glutaryl histamine was administered for 12 days in total (3 days before the induction of ARDS and 9 days during and after the induction). The exception was dexamethasone since, according to the literature data and the information leaflet, long-time administration of steroidal anti-inflammatory agents can cause severe side effects. For this reason, dexamethasone was administered according to the following schedule: 49, 24 and 1 hour before the induction of ARDS in a dose of 5 mg/kg, for 3 days after the first injection of LPS in the same dose; the medicament was withdrawn by a gradual dose reduction for 3 days. Thus, dexamethasone was administered 9 times.
At this step, animals were administered LPS at more lower dose, but for longer time period. They were received 2 mg/kg on days 1 and 2, and 3 and 4 mg/kg on days 3 and 4, respectively. The maximum mortality rate, similarly to the single-dose administration of LD70, was on the first day. On eighth day, mortality reached 33%.
The second step of the experiment comprises the evaluation of both the mortality rate of the animals with calculation of the protective index and narrower indexes used for determination of a specific protection provided by glutaryl histamine in ARDS. As was disclosed above, a lower dose of LPS (LD30) was used at the second stage. In addition, LPS was administered every day for 4 days. This method of administration was aimed at achieving the maximum disorder exactly in the lung for subsequent evaluation of possible protective action of glutaryl histamine.

Data set [2] has as its system acute rhinosinusitis induced by intranasal administration of formalin. The format is in vivo, rat. As to conditions: for Mucopurulent catarrh (number of rats) / Mucous catarrh (number of rats) / Without changes (number of rats, mucous membrane in the nasal passages, macroscopic): n = 10; for The number of caliciform cells within 1 mm of the mucosal membrane of the nasal septum: M ± m. The protocol:
Activity of glutaryl histamine was studied in an experimental model of acute rhinosinusitis (ARS).
Administration of 20 μl of 7.5% formalin to the rat nasal passages leads to the development of a clinical picture similar to the symptoms of acute rhinosinusitis in a human.
The tested medicament and reference medicaments were administered for 7 days after administration of 7.5% formalin. Normal saline solution was used as placebo. The animals were subjected to euthanasia on day 8 after induction of experimental acute rhinosinusitis by method of air embolism. During necropsy, nasal passages of all animals were sampled. The obtained material was placed into 10% neutral-buffered formalin for further histological analysis.
The mucous and submucous membranes of both nasal passages (respiratory and olfactory regions) of the experimental animals were subjected to a morphological analysis of the specific activity of glutaryl histamine.
After the clinical phase of the experiment, the material derived from the animals was subjected to the standard treatment to prepare histological paraffin sections with a thickness of 3 to 5 μm. The sections were stained with hematoxylin and eosin for a microscopic study. Comparison and histological analysis of changes were performed versus the group of intact rats.
The main pathological processes inherent in experimental acute rhinosinusitis, such as vascular congestion in mucous membrane, hyperplasia and necrosis of the epithelium, the number of caliciform cells within 1 mm of the mucous membrane in the nasal septum, were evaluated by a semi-quantitative method to evaluate the degree of pathophysiological changes in histological, histochemical and morphological studies.
The microscopic analysis of exudative disorder developed in rats with acute rhinitis was aimed at measuring the number of caliciform cells comprising acidic mucus (Table 3).

A further data set relates to LPS-induced tonsillitis. In words: LPS-induced tonsillitis model (E. coli LPS into cervical lymph node). The format is in vivo. As to conditions: for Area of germinal centers of lymphoid follicles in affected lymph nodes / Weight difference between affected and intact lymph nodes: M ± m. The protocol:
This example is aimed at evaluating the activity of glutaryl histamine on experimental model of tonsillitis. LPS-induced tonsillitis is one of the most adequate models for the study of the pathogenesis, pathomorphological changes and action of pharmacological medicaments on the course of this disease.
Tonsillitis was induced under anesthesia by administration of a solution of E. coli lipopolysaccharide (LPS) (Sigma) in normal physiological solution in a dose of 20 μg/kg, by 10 μl to the right upper lymph node (Inn. Cervicales superficiales). After administration, the lymph nodes were put under superficial neck muscles and then the skin was stitched. The wound was treated with streptocide. The animal was placed into a post-operation cage.
The tested medicament was administered once daily in a given dose strictly at the stated time for three days before the induction of tonsillitis and 10 days after. Normal saline solution was used as placebo.
Immediately after euthanasia, the animals were subjected to necropsy, the affected and intact lymph nodes were removed and weighed.
The lymph nodes derived from the half of animals from each group were being frozen after removal in a refrigerating chamber at −25° C. for 72 hours. Then the lymph nodes were lyophilized.
In a half of animals from each group (7), the affected lymph nodes were subjected to histological analysis. After euthanasia, intact and affected lymph nodes were removed from each animal. […] Sections with a thickness of 4 to 6 μm were prepared from the paraffin blocks, stained with hematoxylin and eosin to reveal typical pathological processes and study required parameters using light-optical microscope Leica DM LS (magnification 200× and 400×).
Weights of intact and affected lymph nodes were compared and the nodes also were lyophilized to evaluate an effect of the medicaments on the swelling degree and adequacy of the model of tonsillitis.
The protein-synthetic function of the liver and a systemic effect of the medicaments on organism were evaluated in total protein (TP) analysis.

The test system of data set [3] is acute respiratory distress syndrome (ARDS). Briefly: ARDS model, single intravenous LPS 7.5 mg/kg. The format is in vivo, rat. As to conditions: Dexamethasone 5 mg/kg. The protocol:
as §1
The mortality rate among the animals administered LPS in an intravenous dose of 7.5 mg/kg was 70% for 8 days. The most of them (60%) died on the first day, in particular, from 4 to 12-16 hours after the injection of LPS. The mortality rate among the animals administered glutaryl histamine was different from the rate in animals treated with dexamethasone; however, most of them also died on the first day, about in the same time period (Table 11).

[4] abbreviates: Diclofenac 11 mg/kg, listed as diclofenac.

Where two headings read alike, the source gives them in different places. Marks after values point to notes of the source that are not given here.

In the case of `C[C@@H]1C[C@H]2[C@@H]3CCC4=CC(=O)C=C[C@]4(C)[C@@]3(F)[C@@H](O)C[C@]2(C)[C@@]1(O)C(=O)CO` [Dexamethasone, dexamethasone, reference compound], in data set [1] (Dexamethasone 5 mg/kg), the “IP (%) (protective index)” value is on record as 62.5%, the “M (%) (mortality rate)” value amounted to 12.5% and the “S (%) (survival rate)” value amounted to 87.5%. Besides, the Died in data set [1] (Dexamethasone 5 mg/kg, total number 24) was found to be 3. Moreover, the “mortality rate for the first three days” value in data set [1] (dexamethasone (5 mg/kg), first three days) is 0%. In data set [2] (Dexamethasone 5 mg/kg), the “Mucopurulent catarrh (number of rats)” value was determined as 0; the “Mucous catarrh (number of rats)” value is listed as 1; the “Without changes (number of rats, mucous membrane in the nasal passages, macroscopic)” value is 9. In addition, in data set [2] (Dexamethasone (5 mg/kg)), the “The number of caliciform cells within 1 mm of the mucosal membrane of the nasal septum” value was 15.6 ± 0.6. In addition, in the data set on LPS-induced tonsillitis (Dexamethasone 5 mg/kg), the “Mortality rate (%)” value is recorded as 64% and the “The number of died animals/initial number of animals in a group” value is 9/14. In the data set with LPS-induced tonsillitis (Dexamethasone (5 mg/kg)), the “Area of germinal centers of lymphoid follicles in affected lymph nodes” value is reported as 0.016 ± 0.004* ** mm^2; the “Weight difference between affected and intact lymph nodes” value is reported as 15.6 ± 1.8 mg. Moreover, in data set [3], the “IP (%) (protective index)” value is recorded as 28.6% and the “S (%) (survival rate)” value was 50%. Moreover, in data set [3] (8 days), the “Me (%) (mortality rate)” value was 50%. In addition, the Died in data set [3] (total number 10) was determined as 5.

Take `O=C(O)Cc1ccccc1Nc1c(Cl)cccc1Cl` [Diclofenac, diclofenac, reference compound]: in data set [2] (Diclofenac 11 mg/kg), the “Mucopurulent catarrh (number of rats)” value was determined as 7; the “Mucous catarrh (number of rats)” value came out at 3; the “Without changes (number of rats, mucous membrane in the nasal passages, macroscopic)” value came to 0. Besides, in data set [2] (setting [4]), the “Mucopurulent catarrh (number of rats)” value was “four” and the “Mucous catarrh (number of rats)” value is “three”. In addition, the “The number of caliciform cells within 1 mm of the mucosal membrane of the nasal septum” value in data set [2] (Diclofenac (11 mg/kg)) is listed as 31.8 ± 1.9* **. Moreover, in the data set with LPS-induced tonsillitis (Diclofenac (11 mg/kg)), the “Mortality rate (%)” value is reported as 29%; the “The number of died animals/initial number of animals in a group” value is recorded as 4/14; the “Area of germinal centers of lymphoid follicles in affected lymph nodes” value is 0.074 ± 0.007* mm^2; the “Weight difference between affected and intact lymph nodes” value is 16.3 ± 1.4 mg.

For the origin of these results see US20170143674A1, “Use of Glutaryl Histamine for the Treatment of Respiratory Tract Diseases” (LTD "VALENTA-INTELLEKT", priority 2011, published 2017).
